We go through six compounds from patent US20020115623A1, “Saponin derivatives useful for inhibiting sialyltransferase and biosynthesis of sialoglycoconjugate” (Shui-Tein Chen, priority 2000, published 2002).

One test deals with T1, α2,3-sialyltransferase (Mus musculus, UniProt P54751).
T1 construct: made in house
T1 sequence (P54751 1-337): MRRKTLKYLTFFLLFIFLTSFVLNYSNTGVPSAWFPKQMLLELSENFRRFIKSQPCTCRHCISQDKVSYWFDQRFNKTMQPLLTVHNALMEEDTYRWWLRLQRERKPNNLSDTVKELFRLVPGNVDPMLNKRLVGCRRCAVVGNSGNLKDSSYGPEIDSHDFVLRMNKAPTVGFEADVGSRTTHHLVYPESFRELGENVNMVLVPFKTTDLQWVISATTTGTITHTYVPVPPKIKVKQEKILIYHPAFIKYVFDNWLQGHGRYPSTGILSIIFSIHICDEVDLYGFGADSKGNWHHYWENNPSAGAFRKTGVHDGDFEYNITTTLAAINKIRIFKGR
Put plainly: Assay of α2,3-sialyltransferase activity. It counts as biochemical. The conditions noted are these: for Percentage of inhibition (%): concentration of inhibitor in assay 30 μM. Here is the method: (§1) α2,3-Sialyltransferases were prepared by the procedures as described by Tsuji et al, Eur J Biochem., 1993, 216(2), 377-85. The suspension of enzyme-bound beads in 250 mM sodium cacodylate buffer (pH 6.4), 25 mM MgCl2, 5 mM CaCl2 was mixed with a Vortex mixer. Then, 4 μl of the enzyme suspension (1×10^−6 Units) was pipetted using a Gilson P-20 pipetter immediately after mixing. The enzyme was then premixed with 4 μl of inhibitors (75 μM) or water (as control) at 25° C. for 5 min. Then, the substrates, 1 μl of CMP-[14C]NeuAc (40 nCi/μl) and 1 μl of Galα1,3GalNAc-Obzl (0.1 mM), were added to the pre-incubated enzyme-inhibitor mixture and incubated at 37° C. for 3 h. The final concentrations of sodium cacodylate, MgCl2, CaCl2, and Galα1,3GalNAc-OBzl in the reaction mixture were 100 mM, 10 mM, 2 mM, and […], respectively. The solution was placed in the ice to stop the reaction. The resulting reaction products were immediately analyzed by silica gel 60 HPTLC plate (Merck, Germany) with a solvent system of ethanol/pyridine/n-butanol/acetate/water (100:10:10:3:30). The radioactivity of the corresponding product and total radioactivity were detected and quantified with a BAS 1500 radio-image analyzer (Fuji Film, Japan).

The target in the next test is T2, α2,6-sialyltransferase (Gallus gallus, UniProt Q92183).
T2 construct: made in house
T2 sequence (Q92183 whole entry): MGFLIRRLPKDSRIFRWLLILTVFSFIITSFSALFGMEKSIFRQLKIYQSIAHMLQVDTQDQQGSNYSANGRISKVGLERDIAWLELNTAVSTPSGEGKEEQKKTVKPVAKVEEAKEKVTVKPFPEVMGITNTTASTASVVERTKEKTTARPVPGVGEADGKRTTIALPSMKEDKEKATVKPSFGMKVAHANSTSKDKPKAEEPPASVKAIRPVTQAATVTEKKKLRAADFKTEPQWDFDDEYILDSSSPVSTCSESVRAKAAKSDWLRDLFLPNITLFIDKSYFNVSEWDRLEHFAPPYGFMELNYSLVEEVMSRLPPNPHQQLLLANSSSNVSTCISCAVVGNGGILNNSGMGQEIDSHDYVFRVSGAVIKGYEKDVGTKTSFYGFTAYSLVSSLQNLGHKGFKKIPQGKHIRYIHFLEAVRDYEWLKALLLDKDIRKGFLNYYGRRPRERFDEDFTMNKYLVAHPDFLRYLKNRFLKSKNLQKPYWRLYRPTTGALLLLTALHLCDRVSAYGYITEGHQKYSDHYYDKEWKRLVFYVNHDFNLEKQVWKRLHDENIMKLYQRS
The experiment in a line: Assay of α2,6-sialyltransferase activity. It counts as biochemical. The conditions noted are these: concentration of inhibitor in assay 20 μM. Here is the method: as §1
α2,6-Sialyltransferases were prepared by the procedures as described by Tsuji et al, J Biol Chem., 1994, 269(2), 1402-9. The assay procedures for α2,6-Sialyltransferases were the same as those for α2,3-Sialyltransferases, except that 1 μl of Galα1,3GalNAc-Obzl (0.1 mM) was replaced by 1 μl of fetuin (1 μg/μl).

In the next test the test system is sialidase. Put plainly: Sialidase assay. It counts as biochemical. Set-up: Relative Activity (%): dose or concentration left out as unconfirmed. Here is the method:
The sialidase (10 mU/90 μl, sigma) in 500 mM sodium phosphate buffer (pH 4.5) was mixed with 10 μl inhibitor (5 mM) or water, 100 μl 4-methylumbelliferyl-[…]-acetylneuraminic acid (0.2 mM, sigma). The resulting solution was incubated at 37° C. for 30 min. The solution was added 1 ml quenching buffer (0.133 M glycine-NaOH, pH 10.7, 60 mM NaCl and 41.5 mM Na2CO3) to stop the reaction. The fluorescence intensity of the resulting solution was measured by fluorescence spectrophotometer at 360 nm excitation and at 440 nm emission.

Test [1] has as its system cell surface α2,6-sialoglycoconjugates on HepG2. The experiment in a line: Flow cytometry (FITC-SNA) of inhibitor-treated HepG2 cells. It counts as cell-based, human. The conditions noted are these: for Cell surface α2,6-sialoglycoconjugates (%) on HepG2: three days, FITC-SNA stain, control 100. Here is the method: (§2) Human breast cancer cell MCF7 and hepatoma cell HepG2 were incubated in 5% CO2 incubator at 37° C. with the MEM (Eagle) medium with Earle's Bss supplemented with 2 mM glutamine, 1.5 g/l sodium bicarbonate, 0.1 mM non-essential amino acids, 1.0 mM sodium pyruvate, 100 units/ml penicillin, 100 μg/ml streptomycin and 2.5 μg/ml amphotericin B and with 10% fetal bovine serum. The cells were transferred weekly to 0.025% trypsin in 0.53 mM EDTA in Ca^2+Mg^2+-free PBS.
(§3) The cells were incubated in the culture medium with 2.5% fetal bovine serum in the presence of a different concentration (5, 25, 50 and 100 μM, respectively) of the inhibitor in a 5% CO2 incubator at 37° C. for three days.
(§4) Fluorescein isothiocyanate labeled Maackia amurensis agglutinin (MAA) and Sambucus nigra agglutinin (SNA), which recognize the oligosaccharide species NeuAcα2,3-Gal-R and NeuAcα2,6-R, respectively, were purchased from Vector Labs Inc. (Burlingame, Calif.). Cells (control and inhibitor-treated). The cells scraped from dishes with a rubber policeman were washed with PBS and stained with fluorescein isothiocyanate labeled MAA and SNA, respectively, in binding buffer (10 mM HEPES, 0.15 M NaCl, pH 7.5) at 4° C. for 1 h. After centrifugation, cells were washed three times with PBS and fixed with 1% paraformaldehyde. The fluorescence intensity was measured with a FACScan flow cytometry (Becton Dickinson, Mountain View, Calif.).

Test [2] relates to cell surface α2,3-sialoglycoconjugates on MCF7. The experiment in a line: Flow cytometry (FITC-MAA) of inhibitor-treated MCF7 cells. The conditions noted are these: for Cell surface α2,3-sialoglycoconjugates (%) on MCF7: three days, FITC-MAA stain, control 100. It counts as cell-based, human. As for the experimental part:
as §2, §3, §4

The subject of another test is fucosyltransferase. Put plainly: Fucosyltransferase assay. It counts as biochemical. The conditions noted are these: FIG. 1. As for the experimental part: The fucosyltransferase (1 mU/10 μl, Calbiochem) in 100 mM Tris-HCl buffer (pH 7.5) and 40 mM MnCl2 was mixed with 4 μl inhibitor or water, 4 μl N-acetylglucosamine (1 mM) and 2 μl GDP-[^14C]fucose (20 nCi). The resulting solution was incubated at 37° C. for one hour. The reaction products were detected through the same procedures as those for sialyltransferase assay.

A further test deals with α-mannosidase. The experiment in a line: α-Mannosidase assay. The arrangement: Relative Activity (%): dose or concentration left out as unconfirmed. It counts as biochemical. Here is the method: The α-mannosidase (10 mU/90 μl, Sigma) in 500 mM sodium phosphate buffer (pH 4.5) was mixed with 10 μl inhibitor (5 mM) or water, 100 μl 4-methylumbelliferyl-[…]-mannopyranoside (0.2 mM). The resulting solution was incubated at 37° C. for 30 min. The resulting products were detected through the same procedures as those for sialidase assay.

The next test has as its system β-galactosidase. Put plainly: β-Galactosidase assay. It counts as biochemical. The arrangement: Relative Activity (%): dose or concentration left out as unconfirmed. Here is the method:
[…] The resulting solution was incubated at 37° C. for 30 min. The resulting products were detected through the same procedures as those for sialidase assay.

Test [3] deals with human breast cancer MCF7 cells. The experiment in a line: Growth inhibition of MCF7 cells. It counts as cell-based. The conditions noted are these: FIG. 2. As for the experimental part:
as §2, with “PBS. The cells were incubated in the culture medium with 2.5% fetal bovine serum in the presence of a different concentration (5, 25, 50 and 100 μM, respectively) of the inhibitor in a 5% CO2 incubator at 37° C. for three days.” for “PBS.”

Test [4] deals with human hepatoma HepG2 cells. The experiment in a line: Growth inhibition of HepG2 cells. It counts as cell-based. The conditions noted are these: FIG. 3. Here is the method:
as §2, with “PBS. The cells were incubated in the culture medium with 2.5% fetal bovine serum in the presence of a different concentration (5, 25, 50 and 100 μM, respectively) of the inhibitor in a 5% CO2 incubator at 37° C. for three days.” for “PBS.”

Regarding `CC1OC(OC2C(OC3C(OC4CCC5(C)C(CCC6(C)C5CC=C5C7CC(C)(C)CC(O)C7(C)CCC56C)C4(C)C)OC(C(=O)O)C(O)C3O)OC(CO)C(O)C2O)C(O)C(O)C1O` (centres unmarked) [kaikasaponin III], the entries for the “Percentage of inhibition (%)” value on α2,3-sialyltransferase and at α2,6-sialyltransferase were 95.5% and 83.2%, respectively.
For `CC1(C)C[C@@H](O)[C@]2(C)CC[C@]3(C)C(=CC[C@@H]4[C@@]5(C)CC[C@H](O[C@@H]6O[C@H](C(=O)O)[C@@H](O)[C@H](O)[C@H]6O[C@@H]6O[C@H](CO)[C@H](O)[C@H](O)[C@H]6O)[C@](C)(CO)[C@@H]5CC[C@]43C)[C@@H]2C1` [soyasaponin III] the same measures were 61.5% and 23.1%.
In the case of `C[C@@H]1O[C@@H](O[C@H]2[C@H](O[C@H]3[C@H](O[C@H]4CC[C@@]5(C)[C@@H](CC[C@]6(C)[C@@H]5CC=C5[C@@H]7CC(C)(C)C[C@@H](O)[C@]7(C)CC[C@]56C)[C@@]4(C)CO)O[C@H](C(=O)O)[C@@H](O)[C@@H]3O)OC[C@H](O)[C@@H]2O)[C@H](O)[C@H](O)[C@H]1O` [soyasaponin II], the “Percentage of inhibition (%)” value was 93.3% at α2,3-sialyltransferase and 64.4% at α2,6-sialyltransferase.
On to `C[C@@H]1O[C@@H](O[C@H]2[C@H](O[C@H]3[C@H](O[C@H]4CC[C@@]5(C)[C@@H](CC[C@]6(C)[C@@H]5CC=C5[C@@H]7CC(C)(C)C[C@@H](O)[C@]7(C)CC[C@]56C)[C@@]4(C)CO)O[C@H](C(=O)O)[C@@H](O)[C@@H]3O)O[C@H](CO)[C@H](O)[C@@H]2O)[C@H](O)[C@H](O)[C@H]1O` [soyasaponin I], for which the “inhibition of sialidase (in words)” value with sialidase (Table 3) is given as “did not inhibit”. For the same compound, the “Relative Activity (%)” value in the test on sialidase (soyasaponin I, control 100) amounted to 142.0%; with α-mannosidase (soyasaponin I, control 100), 99.4%; in the test on β-galactosidase (soyasaponin I, control 100), 112.0%. Also, the “Cell surface α2,6-sialoglycoconjugates (%) on HepG2” value in test [1] (5 μM) is recorded as 96.5%; in test [1] (25 μM), 85.1%; in test [1] (50 μM), 76.4%; in test [1] (100 μM) it was 41.4%. For the same compound, in [1] (100 μM), the “decrease of cell surface α2,6-sialoglyconjugates of HepG2 cells” value was “about 60%”. Also, the “Cell surface α2,3-sialoglycoconjugates (%) on MCF7” value in test [2] (5 μM) is listed as 99.5%; in test [2] (25 μM), 68.0%; in test [2] (50 μM), 56.8%; in test [2] (100 μM), 19.8%. In test [2] (100 μM), the “decrease of the α2,3-sialoglyconjugates of MCF7 cells” value is listed as “about 80%”. Moreover, in the test with fucosyltransferase, the “inhibition of fucosyltransferase (in words)” value is listed as “not for fucosyltransferase”. Also, the “inhibition of mannosidase (in words)” value in the test on α-mannosidase (Table 3) is “did not inhibit”. Moreover, the “inhibition of galactosidase (in words)” value in the test with β-galactosidase (Table 3) is given as “did not inhibit”. The “inhibition of sialyltransferases (in words)” value against α2,3-sialyltransferase (FIG. 1, sialyltransferases, type not specified) is “specifically inhibited”. The “Percentage of inhibition (%)” value was 89.9% at α2,3-sialyltransferase and 76.9% at α2,6-sialyltransferase. The “growth of human breast cancer MCF7 cells (in words)” value in test [3] was “inhibited the growth”. Moreover, the “growth of human hepatoma HepG2 cells (in words)” value in test [4] is on record as “inhibited the growth”.
`CC1(C)CC(O)C2(C)CCC3(C)C(=CCC4C5(C)CCC(OC6OC(C(=O)O)C(O)C(O)C6OC6OC(CO)C(O)C(O)C6OC6OC(CO)C(O)C(O)C6O)C(C)(CO)C5CCC43C)C2C1` (centres unmarked) [soyasaponin V]: the “Percentage of inhibition (%)” value amounted to 79.6% at α2,3-sialyltransferase and 32.9% at α2,6-sialyltransferase.
Take soyasaponin I-Me: the “Percentage of inhibition (%)” value turned out to be 63.8% on α2,3-sialyltransferase and 32.2% on α2,6-sialyltransferase.
